Measurements reported in patent US20090239845A1, “PYRAZOLE COMPOUNDS AS PROSTAGLANDIN RECEPTORS LIGANDS” (priority 2005, published 2009).
Counter-ions that a name gives are not always drawn.

Tests used:
[1] = system: gastric lesions induced by taurocholate acid, aspirin or indomethacin; details: rats, J Pharmacol Exp Ther 1992, 263(1), 374-380; cited from earlier work
human EP3 receptor = biological target: T1, human EP3 receptor (Homo sapiens, UniProt P43115); assay: human EP3 calcium mobilisation assay; type: cell-based; details: negative logarithm10 of the antagonist dissociation constant; CHO-K1 cells, PGE2; free bases or sodium salts; averages of a number of experiments; read-out: functional pKi value (converted)
T1 construct: expressed in transfected cells; host or cells: CHO-K1
T1 sequence (P43115 1-390): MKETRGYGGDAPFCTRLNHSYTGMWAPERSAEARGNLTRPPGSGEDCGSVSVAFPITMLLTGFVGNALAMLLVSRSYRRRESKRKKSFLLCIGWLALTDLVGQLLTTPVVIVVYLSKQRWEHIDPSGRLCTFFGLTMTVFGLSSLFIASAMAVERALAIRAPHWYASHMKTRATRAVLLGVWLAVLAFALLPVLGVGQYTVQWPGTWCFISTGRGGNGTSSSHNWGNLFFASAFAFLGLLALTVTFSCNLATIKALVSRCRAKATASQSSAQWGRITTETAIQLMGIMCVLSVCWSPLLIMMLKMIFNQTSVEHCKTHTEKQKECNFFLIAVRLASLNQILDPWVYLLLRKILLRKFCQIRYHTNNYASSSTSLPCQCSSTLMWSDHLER
Protocol: Briefly, the antagonist properties of compounds are assessed by their ability to inhibit the mobilisation of intracellular calcium ([Ca^2+]i) in response to activation of EP1 or EP3 receptors by the natural agonist hormone prostaglandin E2 (PGE2). Increasing concentrations of antagonist reduce the amount of calcium that a given concentration of PGE2 can mobilise. The net effect is to displace the PGE2 concentration-effect curve to higher concentrations of PGE2. The amount of calcium produced is assessed using a calcium-sensitive fluorescent dye such as Fluo-4, AM and a suitable instrument such as a Fluorimetric Imaging Plate Reader (FLIPR). Increasing amounts of [Ca^2+]i produced by receptor activation increase the amount of fluorescence produced by the dye and give rise to an increasing signal. The signal may be detected using the FLIPR instrument and the data generated may be analysed with suitable curve-fitting software.
The human EP1 or EP3 calcium mobilisation assay (hereafter referred to as ‘the calcium assay’) utilises Chinese hamster ovary-K1 (CHO-K1) cells into which a stable (pCIN; BioTechniques 20 (1996): 102-110) vector containing either EP1 or EP3 cDNA has previously been transfected. Cells are cultured in suitable flasks containing culture medium such as DMEM:F-12 supplemented with 10% v/v foetal calf serum, 2 mM L-glutamine, 0.25 mg/ml geneticin, 100 μM flurbiprofen and 10 μg/ml puromycin.
For assay, cells are harvested using a proprietary reagent that dislodges cells such as Versene. Cells are re-suspended in a suitable quantity of fresh culture media for introduction into a 384-well plate. Following incubation for 24 hours at 37° C. the culture media is replaced with a medium containing Fluo-4 and the detergent pluronic acid, and a further incubation takes place. Concentrations of compounds are then added to the plate in order to construct concentration-effect curves. This may be performed on the FLIPR in order to assess the agonist properties of the compounds. Concentrations of PGE2 are then added to the plate in order to assess the antagonist properties of the compounds.
The data so generated may be analysed by means of a computerised curve-fitting routine. The concentration of compound that elicits a half-maximal inhibition of the calcium mobilisation induced by PGE2 (plC50) may then be estimated.

[2] = system: rodent model of post-operative pain; details: Anesthesia and Analgesia 2001, 92, 233-238; cited from earlier work
[3] = system: rat model of chronic constriction injury; details: Anesthesia and Analgesia 2001, 93, 1012-7; cited from earlier work

SMILES | Ki (human EP3 receptor) [nM] | other results
O=C(O)Cc1ccc(CCNS(=O)(=O)c2ccc(Cl)cc2)cc1 [BM 13505] |  | gastric lesions [1]: inhibit gastric lesions
CCC(C)NC(=O)Oc1cc(C)n(Cc2cc(Cl)ccc2OCC(C)C)n1 (stereo not drawn) [Example 50, 1-({5-Chloro-2-[(2-methylpropyl)oxy]phenyl}methyl)-5-methyl-1H-pyrazol-3-yl (1-methylpropyl)carbamate] | 158 to 316 | 
Cc1cc(OC(=O)NC2CCCC2)nn1Cc1cc(Cl)ccc1OCC(C)C [Example 52, 1-({5-Chloro-2-[(2-methylpropyl)oxy]phenyl}methyl)-5-methyl-1H-pyrazol-3-yl cyclopentylcarbamate] | 158 to 316 | 
Cc1cc(N(C)C(=O)OC(C)(C)C)nn1Cc1cc(Cl)ccc1OCc1ccccc1 [Example 75, 1,1-Dimethylethyl[({5-chloro-2-[(phenylmethyl)oxy]phenyl}methyl)-5-methyl-1H-pyrazol-3-yl]methylcarbamate] | 158 to 316 | 
Cc1cc(NC(=O)C(F)(F)F)nn1Cc1cc(Cl)ccc1OCC(C)C [Example 95, N-[1-({5-Chloro-2-[(2-methylpropyl)oxy]phenyl}methyl)-5-methyl-1H-pyrazol-3-yl]-2,2,2-trifluoroacetamide] | 158 to 316 | 
Cc1cc(N(C)C(=O)c2ccccc2)nn1Cc1cc(Cl)ccc1OCc1ccccc1 [Example 180, N-[1-({5-Chloro-2-[(phenylmethyl)oxy]phenyl}methyl)-5-methyl-1H-pyrazol-3-yl]-N-methylbenzamide] | 158 to 316 | 
Cc1cc(Cl)ccc1S(=O)(=O)NC[C@H]1C2CCC(CC2)[C@@H]1/C=C\CCCC(=O)O [ONO-8711] |  | mechanical hyperalgesia [2]: inhibits mechanical hyperalgesia; hyperalgesia and allodynia [3]: reduces hyperalgesia and allodynia
O=C(O)CCc1ccccc1CC1C2CCC(O2)C1c1nc(C(=O)NCCCCC2CCCCC2)co1 (stereo not drawn) [SQ 33961] |  | gastric lesions [1]: inhibit gastric lesions

Further lines, with some results ahead:

Ki (human EP3 receptor) [nM] | SMILES | other results
158 to 316 | Cc1cc(NC(=O)c2ccccc2CO)nn1Cc1cc(Cl)ccc1OCC(C)C [Example 183, N-[1-({5-Chloro-2-[(2-methylpropyl)oxy]phenyl}methyl)-5-methyl-1H-pyrazol-3-yl]-2-(hydroxymethyl)benzamide] | 
158 to 316 | Cc1cc(N2Cc3ccccc3C2=O)nn1Cc1cc(Cl)ccc1OCC(C)C [Example 184, 2-[1-({5-Chloro-2-[(2-methylpropyl)oxy]phenyl}methyl)-5-methyl-1H-pyrazol-3-yl]-2,3-dihydro-1H-isoindol-1-one] | 
158 to 316 | Cc1cc(NC(=O)c2cccc(C=O)c2)nn1Cc1cc(Cl)ccc1OCC(C)C [Example 187, N-[1-({5-Chloro-2-[(2-methylpropyl)oxy]phenyl}methyl)-5-methyl-1H-pyrazol-3-yl]-3-formylbenzamide] | 
158 to 316 | Cc1cc(N2CCN(Cc3ccccn3)CC2=O)nn1Cc1cc(Cl)ccc1OCC(C)C [Example 227, 1-[1-({5-Chloro-2-[(2-methylpropyl)oxy]phenyl}methyl)-5-methyl-1H-pyrazol-3-yl]-4-(2-pyridinylmethyl)-2-piperazinone dihydrochloride] | 
158 to 316 | Cc1cc(-c2cn3ccccc3n2)nn1Cc1cc(Cl)ccc1OCC(C)C [Example 364, 2-[1-({5-Chloro-2-[(2-methylpropyl)oxy]phenyl}methyl)-5-methyl-1H-pyrazol-3-yl]imidazo[1,2-a]pyridine hydrochloride] | 
158 to 316 | CCOC(CNC(=O)c1cc(C)n(Cc2cc(Cl)ccc2OCC(C)C)n1)OCC [Example 387, N-[2,2-Bis(ethyloxy)ethyl]-1-({5-chloro-2-[(2-methylpropyl)oxy]phenyl}methyl)-5-methyl-1H-pyrazole-3-carboxamide] | 
